Assay results as given in PubChem BioAssay (NCI).
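Interpolation was linear, between the two tested concentrations surrounding the appropriate level; five concentrations were tested over 48 hours in 96-well plates. GI50 = concentration required for 50% inhibition of growth. At the TGI there is no net growth.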

Experiments:
Assay in all cases: NCI tumour cell line growth inhibition, 48 h
HT29 colon = system: HT29 colon
SNB-19 CNS = system: SNB-19 CNS
MDA-MB-231 breast = system: MDA-MB-231 breast
SN12C renal = system: SN12C renal
EKVX NSCLC = system: EKVX NSCLC
CCRF-CEM leukemia = system: CCRF-CEM leukemia
SK-MEL-5 melanoma = system: SK-MEL-5 melanoma
BT-549 breast = system: BT-549 breast
HL-60(TB) leukemia = system: HL-60(TB) leukemia
HCC-2998 colon = system: HCC-2998 colon
MDA-N = system: MDA-N

Row | SMILES | TGI (HT29 colon) | TGI (SNB-19 CNS) | TGI (MDA-MB-231 breast) | TGI (SN12C renal) | TGI (EKVX NSCLC) | TGI (CCRF-CEM leukemia) | TGI (SK-MEL-5 melanoma) | TGI (BT-549 breast) | GI50 (HT29 colon) | GI50 (MDA-MB-231 breast) | GI50 (HL-60(TB) leukemia) | TGI (HL-60(TB) leukemia) | GI50 (HCC-2998 colon) | TGI (HCC-2998 colon) | GI50 (SN12C renal) | GI50 (EKVX NSCLC) | GI50 (CCRF-CEM leukemia) | GI50 (SK-MEL-5 melanoma) | GI50 (BT-549 breast) | TGI (MDA-N)
1 | Cc1cc(C(O)CNC(C)CCn2cnc3c2c(=O)n(C)c(=O)n3C)ccc1O (configuration not stated) | > 100 µM | > 100 µM | > 100 µM | > 100 µM | > 100 µM | > 100 µM | > 100 µM | > 100 µM | – | – | – | – | – | – | – | – | – | – | – | –
2 | Cc1ccc(S(=O)(=O)Nc2cc(Sc3ccccc3)c(O)c3ccccc23)cc1 | 53.1 µM | – | 6.16 µM | 5.68 µM | 25.3 µM | 16.6 µM | 13.1 µM | 24.2 µM | 20.6 µM | 2.43 µM | 1.57 µM | 4.13 µM | 18.4 µM | 35.9 µM | 2.31 µM | 12.3 µM | 2.4 µM | 3.57 µM | 11.9 µM | –
3 | CCCOP(=S)(N1CC1)N1CC1 | > 100 µM | > 100 µM | – | > 100 µM | > 100 µM | > 100 µM | > 100 µM | – | – | – | – | > 100 µM | – | > 100 µM | – | – | – | – | – | –
4 | COc1ccc(/C=C(\Cl)c2ccc(OC)cc2)cc1 | – | > 100 µM | – | > 100 µM | > 100 µM | > 100 µM | > 100 µM | – | – | – | – | > 100 µM | – | > 100 µM | – | – | – | – | – | –
5 | CC[C@H](C)[C@H]1NC(=O)[C@@H](NC(=O)[C@@H](CC(C)C)N(C)C(=O)C2CCCN2C(=O)[C@H](C)O)[C@@H](C)OC(=O)[C@H](Cc2ccccc2)N(C)C(=O)[C@@H]2CCCN2C(=O)[C@H](CC(C)C)NC(=O)[C@@H](C)C(=O)[C@H](C(C)C)OC(=O)C[C@@H]1O (some centres not stated) | 0.0205 µM | < 0.00625 µM | – | > 14.5 µM | 0.524 µM | > 62.5 µM | – | < 0.00625 µM | – | – | – | > 62.5 µM | – | 0.00678 µM | – | – | – | – | – | 0.109 µM
6 | CC(C)(C)N=c1n(C(C)(C)C)oc(=O)n1-c1ccccc1 | > 50 µM | > 50 µM | > 50 µM | > 50 µM | > 50 µM | > 50 µM | > 50 µM | – | – | – | – | > 50 µM | – | – | – | – | – | – | – | > 50 µM
7 | CC#Cc1c(C#CC)c(OC)c2c(c1OC)C(=O)c1ccccc1C2=O | > 100 µM | 71.4 µM | – | > 100 µM | > 100 µM | > 100 µM | > 100 µM | – | – | – | – | > 100 µM | – | > 100 µM | – | – | – | – | – | –
8 | O=C(O)CCc1nc2cc3ccccc3cc2[nH]c1=O | > 100 µM | > 100 µM | > 100 µM | > 100 µM | > 100 µM | > 100 µM | > 100 µM | > 100 µM | – | – | – | – | – | > 100 µM | – | – | – | – | – | > 100 µM
9 | COc1ccccc1Cn1[nH]c(=O)c2cc([N+](=O)[O-])ccc21 | > 100 µM | > 100 µM | > 100 µM | > 100 µM | > 100 µM | > 100 µM | > 100 µM | – | – | – | – | > 100 µM | – | > 100 µM | – | – | – | – | – | > 100 µM
10 | COC(=O)CCC1(O)C=CC(=O)C=C1 | > 100 µM | > 100 µM | > 100 µM | > 100 µM | > 100 µM | > 100 µM | > 100 µM | > 100 µM | – | – | – | – | – | > 100 µM | – | – | – | – | – | > 100 µM
11 | CN(C)C(=O)Oc1ccc(C(=S)Nc2ccccc2)cc1Br | 65.1 µM | > 100 µM | – | – | > 100 µM | 48.6 µM | 32.2 µM | 68.7 µM | – | – | – | 39.6 µM | – | > 100 µM | – | – | – | – | – | 57.4 µM
12 | CSc1nc(-c2ccc(Cl)cc2)c(C#N)c(=O)[nH]1 | > 100 µM | > 100 µM | > 100 µM | > 100 µM | > 100 µM | > 100 µM | > 100 µM | > 100 µM | – | – | – | > 100 µM | – | > 100 µM | – | – | – | – | – | –
13 | CCOC(=O)c1c(NC(=O)c2ccc(Br)cc2)sc2c1CCCC2 | > 100 µM | > 100 µM | > 100 µM | > 100 µM | > 100 µM | > 100 µM | > 100 µM | > 100 µM | – | – | – | > 100 µM | – | – | – | – | – | – | – | > 100 µM
14 | C#CC(O)Cc1ccc(OC)c2occc12 (configuration not stated) | > 100 µM | > 100 µM | > 100 µM | > 100 µM | > 100 µM | – | > 100 µM | > 100 µM | – | – | – | – | – | > 100 µM | – | – | – | – | – | > 100 µM
15 | COc1ccccc1N1C(=O)CC(=O)N(C(=O)CCCCCCCCC(=O)N2C(=O)CC(=O)N(c3ccccc3OC)C2=S)C1=S | > 100 µM | > 100 µM | > 100 µM | > 100 µM | > 100 µM | > 100 µM | > 100 µM | > 100 µM | – | – | – | – | – | > 100 µM | – | – | – | – | – | > 100 µM
16 | CCc1n[nH]c(=S)n1/N=C\c1ccc(-c2ccccc2[N+](=O)[O-])o1 | > 100 µM | > 100 µM | > 100 µM | > 100 µM | > 100 µM | > 100 µM | 33.7 µM | > 100 µM | – | – | – | > 100 µM | – | – | – | – | – | – | – | 39.2 µM
17 | CC/C=C/C(/C=C/C[C@]1(CC)C[C@H](CC)[C@H](CC(=O)O)OO1)CC (some centres not stated) | 3.98 µM | 12 µM | 14.3 µM | 14.7 µM | 3.77 µM | 1.95 µM | 10.1 µM | 18.3 µM | – | – | – | 4.76 µM | – | – | – | – | – | – | – | 3.71 µM
18 | CC(=O)NC1C(OCc2ccccc2)OC(CO)C(O)C1OCC(=O)N1CCCC1C(=O)NC(CCC(=O)NCCCCCNc1c2ccccc2nc2cccc([N+](=O)[O-])c12)C(N)=O (configuration not stated) | 12.5 µM | 0.493 µM | 0.0426 µM | 0.0753 µM | 0.633 µM | 1.08 µM | 0.0386 µM | – | – | – | – | 3.98 µM | – | 0.027 µM | – | – | – | – | – | 0.0499 µM
19 | CC(=O)C1=NN(c2ccccc2)C2(S1)SC(c1ccccc1)(c1ccccc1)c1ccccc12 (configuration not stated) | > 100 µM | > 100 µM | – | > 100 µM | > 100 µM | > 100 µM | – | – | – | – | – | > 100 µM | – | > 100 µM | – | – | – | – | – | –
20 | Cc1ccc(Nc2cn(COCc3ccccc3)c(=O)[nH]c2=O)cc1 | > 100 µM | > 100 µM | – | > 100 µM | > 100 µM | > 100 µM | > 100 µM | 82 µM | – | – | – | > 100 µM | – | > 100 µM | – | – | – | – | – | > 100 µM
21 | CSc1nc(C)c(CCCl)c(Cl)n1 | > 100 µM | > 100 µM | > 100 µM | > 100 µM | > 100 µM | > 100 µM | > 100 µM | > 100 µM | – | – | – | – | – | > 100 µM | – | – | – | – | – | > 100 µM
